Assay results taken from patent publication EP0142333A2, “Glycerol derivatives” (ONO PHARMACEUTICAL CO., LTD., priority 1983, dated 1985).
Structures can show the parent of a compound that is named as a salt.

How the values were obtained:
[1] = test system: mice; assay: Acute toxicity by intravenous administration; format: in vivo; settings: intravenously administered to tail vein in mice at the dose of 50 mg/kg
[2] = test system: PAF-induced platelet aggregation; assay: Inhibitory effect on PAF-induced platelet aggregation (platelet rich plasma, Born aggregometer); format: cell-based; settings: Cavia porcellus; platelet rich plasma of male guinea-pig; PAF (10nM)-induced aggregation; absorbancy method
Protocol: (1) Inhibitory effect on PAF-induced platelet aggregation
Whole blood of male guinea-pig was collected with a 3.8%. aqueous solution of trisodium citrate in a proportion of 9:1 (v/v) and the mixture was centrifuged for 10 minutes at room temperature (120 x g) to obtain platelet rich plasma. Using obtained plasma, PAF (10nM)-induced aggregation was determined by the absorbancy method using an aggregometer of Born (cf. J. Physiol., 162, 67 (1962)) .
The evaluation is conducted using the concentration of compounds of the present invention required to produce a 50% inhibition of each effect, i.e. IC50.

Row | SMILES | mortality (dead/used) [1] | IC50 [2] [µM]
1 | CCCCCCCCCCCCCCCCOCC(COCCCCCCC[N+](C)(C)C)OCC (racemic) [5(a), (2RS)-1-0-hexadecyl-2-0-ethyl-3-0-[7-(trimethylammonio)heptyl]glycerol·methanesulfonic acid salt] | 0/5 | 
2 | CCCCCCCCCCCCCCCCOCC(COCCCCCCC[N+](C)(C)C)OCCC (racemic) [5(b), (2RS)-1-0-hexadecyl-2-0-n-propyl-3-0-(7-(trimethylammonio)heptyl]glycerol·methanesulfonic acid salt] | 0/5 | 1.8
3 | CCCCCCCCCCCCCCCCOCC(COCCCC[N+](C)(C)C)C(C)C (racemic) [Example 2(b), (2RS)-l-0-hexadecyl-2-dehydroxy-2-iso-propyl-3-0-[4-(trimethylammonio)butyl]glycerol·iodide] | 2/5 | 
4 | CCCCCCCCCCCCCCCCOCC(CCC)COCCCC[N+](C)(C)C (racemic) [Example 2, (2RS)-1-0-hexadecyl-2-dehydroxy-2-n-propyl-3-0-[4-(trimethylammonio)butyl]glycerol·iodide] |  | 5.3
5 | CCCCCCCCCCCCCCCCOCC(COCCCCCCC[N+](C)(C)C)OC (racemic) [Example 5, (2RS)-1-0-hexcadecyl-2-0-methyl-3-0-[7-(trimethylammonio)heptyl] glycerol·methanesulfonic acid salt] | 0/5 | 1.3
6 | C=CCOC(COCCCCCCCCCCCCCCCC)COCCCC[N+](C)(C)C (racemic) [Example 7, (2RS)-1-0-hexadecyl-2-0-allyl-3-0-[4-(trimethylammonio)butyl] glycerol·iodide] |  | 3.8
